In series [1] the test system is HCT-8 (colon cancer) cells. Kind of series: MTT cell viability assay, HCT-8 cells. Particulars: for IC50: read-out: IC50 against HCT-8 (Colon Cancer). As for the experimental part:
(§1) HCT-8 (colorectal carcinoma), and SK-OV-3 (ovarian cancer) cell lines were obtained from the American Type Culture Collection (ATCC; Manassas, VA, USA). The cells were cultured in RPMI-1640 medium (Cytiva, Marlborough, MA, USA) supplemented with 10% fetal bovine serum (FBS), 100 U/mL penicillin, and streptomycin, and incubated in a humidified atmosphere with 5% CO2 at 37 °C [23].
(§2) Cell viability was determined using the 3-(4,5-dimethylthiazol-2-yl)-2,5-diphenyltetrazolium bromide (MTT) colorimetric assay (Sigma Chemical Co., St. Louis, MO). Cells were seeded in 96-well plates and incubated at 37 °C for 24 h. Subsequently, cells were treated with isolated compounds at concentrations of 2, 20, and 100 μM for an additional 24 h. After treatment, 25 μL of MTT solution (5 mg/mL; Thermo Fisher Scientific, Waltham, MA, USA) was added to each well and incubated for 3 h. The resulting formazan crystals were dissolved in 100 μL of dimethyl sulfoxide, and the absorbance was measured at 550 nm using an ELx808 microplate reader (BioTek Instruments Inc., Winooski, VT, USA).

The subject of series [2] is SK-OV-3 (ovarian cancer) cells. Kind of series: MTT cell viability assay, SK-OV-3 cells. Particulars: for IC50: read-out: IC50 against SK-OV-3 (Ovarian Cancer). As for the experimental part: as §1, §2
For orientation: Tetrazolium dyes change colour on reduction, which living cells bring about.

Setting [3] is: MTT colorimetric assay, 96-well plates, treated at 2, 20, and 100 μM for 24 h, absorbance at 550 nm, mean ± standard deviation from triplicate experiments.

Where “and” joins values, the source holds several entries; their conditions need not be identical. Identical values can stand only once. Like-named read-outs stand apart in the source and are kept apart here. Where a SMILES comes first, the peptide text is derived from it. [ ]: non-standard residue; d: D form. The star is where a group is joined. X2 = CO[C@@H]1NC(=O)CC[C@@H]1N*; X3 = O=C1CC[C@H](N*)[C@@H](O)N1; X1 = O=C1CC[C@H](N*)[C@H](O)N1; Valol = CC(C)[C@@H](CO)N*; Aib = CC(C)(N)C(=O)O

By IC50 is commonly meant the midpoint of a concentration-inhibition curve. Turning to `CC(=O)N[C@@H](Cc1c[nH]c2ccccc12)C(=O)NCC(=O)N[C@@H](C)C(=O)NC(C)(C)C(=O)NC(C)(C)C(=O)N[C@@H](CCC(N)=O)C(=O)NC(C)(C)C(=O)NC(C)(C)C(=O)NC(C)(C)C(=O)N[C@@H](CO)C(=O)N[C@@H](CC(C)C)C(=O)NC(C)(C)C(=O)N1CCC[C@H]1C(=O)N[C@H](C(=O)NC(C)(C)C(=O)N[C@@H](CC(C)C)C(=O)N[C@@H](CCC(N)=O)C(=O)N[C@@H](CCC(N)=O)C(=O)N[C@H](CO)C(C)C)C(C)C` [Compound 2, bukhansantaibol B] (Ac-WGA[Aib][Aib]Q[Aib][Aib][Aib]SL[Aib]PV[Aib]LQQ-Valol), the figures for the IC50 in series [1] (setting [3]) and in series [2] (setting [3]) were 11.7 ± 0.8 µM and 13.8 ± 1 µM, respectively.
For `CC[C@H](C)[C@H](NC(=O)C(C)(C)NC(=O)[C@@H](NC(=O)[C@@H]1CCCN1C(=O)C(C)(C)NC(=O)[C@H](CC(C)C)NC(=O)[C@H](CO)NC(=O)C(C)(C)NC(=O)C(C)(C)NC(=O)C(C)(C)NC(=O)[C@H](CCC(N)=O)NC(=O)C(C)(C)NC(=O)C(C)(C)NC(=O)[C@H](C)NC(=O)CNC(=O)[C@H](Cc1ccccc1)NC(C)=O)C(C)C)C(=O)N[C@@H](CCC(N)=O)C(=O)N[C@@H](CCC(N)=O)C(=O)N[C@H](CO)C(C)C` [Compound 3, bukhansantaibol C] (Ac-FGA[Aib][Aib]Q[Aib][Aib][Aib]SL[Aib]PV[Aib]IQQ-Valol) the same measures were 18.5 ± 0.6 µM and 19.6 ± 0.1 µM.
Regarding `CC[C@H](C)[C@H](NC(=O)C(C)(C)NC(=O)[C@@H](NC(=O)[C@@H]1CCCN1C(=O)C(C)(C)NC(=O)[C@H](CC(C)C)NC(=O)[C@H](C)NC(=O)C(C)(C)NC(=O)C(C)(C)NC(=O)C(C)(C)NC(=O)[C@H](CCC(N)=O)NC(=O)C(C)(C)NC(=O)C(C)(C)NC(=O)[C@H](C)NC(=O)CNC(=O)[C@H](Cc1c[nH]c2ccccc12)NC(C)=O)C(C)C)C(=O)N[C@@H](CCC(N)=O)C(=O)N[C@@H](CCC(N)=O)C(=O)N[C@H](CO)C(C)C` [Compound 4, bukhansantaibol D] (Ac-WGA[Aib][Aib]Q[Aib][Aib][Aib]AL[Aib]PV[Aib]IQQ-Valol), the IC50 was < 10 µM and 7.7 µM in series [1] (setting [3]); < 10 µM and 5.7 µM in series [2] (setting [3]).
Regarding `CC[C@H](C)[C@H](NC(=O)C(C)(C)NC(=O)[C@@H](NC(=O)[C@@H]1CCCN1C(=O)C(C)(C)NC(=O)[C@H](CC(C)C)NC(=O)[C@H](CO)NC(=O)C(C)(C)NC(=O)C(C)(C)NC(=O)C(C)(C)NC(=O)[C@H](CCC(N)=O)NC(=O)C(C)(C)NC(=O)C(C)(C)NC(=O)[C@H](C)NC(=O)CNC(=O)[C@H](Cc1ccccc1)NC(C)=O)C(C)C)C(=O)N[C@@H](CCC(=O)O)C(=O)N[C@@H](CCC(N)=O)C(=O)N[C@H](CO)C(C)C` [Compound 6, bukhansantaibol F] (Ac-FGA[Aib][Aib]Q[Aib][Aib][Aib]SL[Aib]PV[Aib]IEQ-Valol), the IC50 in series [1] (setting [3]) and in series [2] (setting [3]) was more than 50 µM each time.
On to `CC[C@H](C)[C@H](NC(=O)C(C)(C)NC(=O)[C@@H](NC(=O)[C@@H]1CCCN1C(=O)C(C)(C)NC(=O)[C@H](CC(C)C)NC(=O)[C@H](CO)NC(=O)C(C)(C)NC(=O)C(C)(C)NC(=O)C(C)(C)NC(=O)[C@H](CCC(N)=O)NC(=O)C(C)(C)NC(=O)C(C)(C)NC(=O)[C@H](C)NC(=O)CNC(=O)[C@H](Cc1c[nH]c2ccccc12)NC(C)=O)C(C)C)C(=O)N[C@H]1CCC(=O)N[C@H]1O` [Compound 7, bukhansantaibol G] (Ac-WGA[Aib][Aib]Q[Aib][Aib][Aib]SL[Aib]PV[Aib]I-X1), for which the half-maximal inhibitory concentration (IC50) in series [1] (setting [3]) and in series [2] (setting [3]) was more than 50 µM each time.
Take `CC[C@H](C)[C@H](NC(=O)C(C)(C)NC(=O)[C@@H](NC(=O)[C@@H]1CCCN1C(=O)C(C)(C)NC(=O)[C@H](CC(C)C)NC(=O)[C@H](CO)NC(=O)C(C)(C)NC(=O)C(C)(C)NC(=O)C(C)(C)NC(=O)[C@H](CCC(N)=O)NC(=O)C(C)(C)NC(=O)C(C)(C)NC(=O)[C@H](C)NC(=O)CNC(=O)[C@H](Cc1c[nH]c2ccccc12)NC(C)=O)C(C)C)C(=O)N[C@H]1CCC(=O)N[C@@H]1O` [Compound 8, bukhansantaibol H] (Ac-WGA[Aib][Aib]Q[Aib][Aib][Aib]SL[Aib]PV[Aib]I-X3): the IC50 in series [1] (setting [3]) and in series [2] (setting [3]) was more than 50 µM in each case.
`CC[C@H](C)[C@H](NC(=O)C(C)(C)NC(=O)[C@@H](NC(=O)[C@@H]1CCCN1C(=O)C(C)(C)NC(=O)[C@H](CC(C)C)NC(=O)[C@H](CO)NC(=O)C(C)(C)NC(=O)C(C)(C)NC(=O)C(C)(C)NC(=O)[C@H](CCC(N)=O)NC(=O)C(C)(C)NC(=O)C(C)(C)NC(=O)[C@H](C)NC(=O)CNC(=O)[C@H](Cc1c[nH]c2ccccc12)NC(C)=O)C(C)C)C(=O)N[C@H]1CCC(=O)N[C@H]1OC` [Compound 9, bukhansantaibol I] (Ac-WGA[Aib][Aib]Q[Aib][Aib][Aib]SL[Aib]PV[Aib]I-X2): the “cytotoxicity against HCT-8 cells, in words” value in series [1] is “marked loss of cytotoxicity”. The IC50 in series [1] (setting [3]) and in series [2] (setting [3]) was more than 50 µM each time. Moreover, in series [2], the “cytotoxicity against SK-OV-3 cells, in words” value is recorded as “marked loss of cytotoxicity”.
`CC[C@H](C)[C@H](NC(=O)C(C)(C)NC(=O)[C@@H](NC(=O)[C@@H]1CCCN1C(=O)C(C)(C)NC(=O)[C@H](CC(C)C)NC(=O)[C@H](CO)NC(=O)C(C)(C)NC(=O)C(C)(C)NC(=O)C(C)(C)NC(=O)[C@H](CCC(N)=O)NC(=O)C(C)(C)NC(=O)C(C)(C)NC(=O)[C@H](C)NC(=O)CNC(=O)[C@H](Cc1ccccc1)NC(C)=O)C(C)C)C(=O)N[C@H]1CCC(=O)N[C@H]1OC` [Compound 10, bukhansantaibol J] (Ac-FGA[Aib][Aib]Q[Aib][Aib][Aib]SL[Aib]PV[Aib]I-X2): in series [1], the “cytotoxicity against HCT-8 cells, in words” value is “marked loss of cytotoxicity”. In addition, the IC50 in series [1] (setting [3]) and in series [2] (setting [3]) was more than 50 µM each time. For the same molecule, the “cytotoxicity against SK-OV-3 cells, in words” value in series [2] is on record as “marked loss of cytotoxicity”.
For the molecule `CC[C@H](C)[C@H](NC(=O)C(C)(C)NC(C)=O)C(=O)NC(C)(C)C(=O)N[C@@H](Cc1ccc(O)cc1)C(=O)NC(C)(C)C(=O)N[C@@H](CC(C)C)C(=O)NC(C)(C)C(=O)N[C@@H](C)C(=O)NC(C)(C)C(=O)NC(C)(C)C=O` [Compound 11, bukhansantaibal A] (Ac-[Aib]I[Aib]Y[Aib]L[Aib]A[Aib][Aib]-aldehyde), the “cytotoxicity against HCT-8 cells, in words” value in series [1] is “inactivity”. Also, the IC50 in series [1] (setting [3]) and in series [2] (setting [3]) was more than 50 µM in each case. In addition, the “cytotoxicity against SK-OV-3 cells, in words” value in series [2] is listed as “inactivity”.
`CC[C@H](C)[C@H](NC(=O)C(C)(C)NC(C)=O)C(=O)NC(C)(C)C(=O)N[C@@H](Cc1ccc(O)cc1)C(=O)NC(C)(C)C(=O)N[C@H](C(=O)NC(C)(C)C(=O)N[C@@H](C)C(=O)NC(C)(C)C(=O)NC(C)(C)C=O)[C@@H](C)CC` [Compound 12, bukhansantaibal B] (Ac-[Aib]I[Aib]Y[Aib]I[Aib]A[Aib][Aib]-aldehyde): the “cytotoxicity against HCT-8 cells, in words” value in series [1] was “inactivity”. Further, the IC50 in series [1] (setting [3]) and in series [2] (setting [3]) was more than 50 µM each time. Further, the “cytotoxicity against SK-OV-3 cells, in words” value in series [2] is recorded as “inactivity”.
For `COc1cc([C@@H]2c3cc4c(cc3[C@@H](O[C@@H]3O[C@@H]5CO[C@@H](C)O[C@H]5[C@H](O)[C@H]3O)[C@H]3COC(=O)[C@H]23)OCO4)cc(OC)c1O` [Etoposide, reference compound], the IC50 came to 33.7 ± 1.5 µM in series [1] (Homo sapiens, HCT-8, 24 h) and 37.3 ± 1.8 µM in series [2] (Homo sapiens, SK-OV-3, 24 h).

The values are drawn from article PMC12388242, “Cytotoxic Peptidic Metabolites Isolated from the Soil-Derived Fungus Trichoderma atroviride” (Molecules, 2025).
